The values below come from patent publication US20190248834A1, “ENDOMORPHIN-2, TETRAPEPTIDE DERIVATIVES THEREOF, AND USES THEREOF” (priority 2016, published 2019).

For assay [1], the system named is sore site on the left lower gum. Put plainly: Example 38: analgesic effect on gum pain due to pressure from denture. The assay is classed as in vivo, human. Here is the method: […]. […] The dentures were removed and re-inserted 15 hours later. Within about 1 hour, soreness of the same area began to return and application of the above solution composition was repeated in the same way as the day before. All soreness again was alleviated within 5-10 seconds. The relief lasted again for about 7 hours.

Assay [2] relates to extruded intervertebral cervical disc, pain and paresthesia. Description: Example 40: painful extruded intervertebral cervical disc, topical. It is filed as in vivo, human. An excerpt:
Previous therapy undergone by the subject included epidural injections of corticosteroids.

For assay [3] the test system is unchanged. Put plainly: Example 40: painful extruded intervertebral cervical disc, subcutaneous injection. It is filed as in vivo, human. An excerpt: Previous therapy undergone by the subject included epidural injections of corticosteroids. Within the past several months, the pain had intensified, along with a substantial degree of paresthesia and numbness of the fingers of both hands. […] Relief of pain and paresthesia lasted for 1-2 days. Thereafter, the pain and paresthesia returned.
About 1 week later, pain and paresthesia were negligible, but returned within 2-3 weeks. Such injections were repeated 3 times at approximately monthly intervals with the same beneficial results. However, pain and paresthesia were not cured, and recurring within 2-3 weeks.

Assay [4] relates to pain caused by needling or pinching. Description: Example 91: experimentally induced skin pain, intradermal and subcutaneous injection. The assay is classed as in vivo, human. As to conditions: 0.1% sterile aqueous solution pH 6.2, intradermally 0.1 ml and subcutaneously 0.2 ml.
The target of the next assay is mu receptors (Mus musculus, UniProt P42866). Particulars: mouse brain; cited from earlier work.
Sequence of mu receptors (P42866 whole entry): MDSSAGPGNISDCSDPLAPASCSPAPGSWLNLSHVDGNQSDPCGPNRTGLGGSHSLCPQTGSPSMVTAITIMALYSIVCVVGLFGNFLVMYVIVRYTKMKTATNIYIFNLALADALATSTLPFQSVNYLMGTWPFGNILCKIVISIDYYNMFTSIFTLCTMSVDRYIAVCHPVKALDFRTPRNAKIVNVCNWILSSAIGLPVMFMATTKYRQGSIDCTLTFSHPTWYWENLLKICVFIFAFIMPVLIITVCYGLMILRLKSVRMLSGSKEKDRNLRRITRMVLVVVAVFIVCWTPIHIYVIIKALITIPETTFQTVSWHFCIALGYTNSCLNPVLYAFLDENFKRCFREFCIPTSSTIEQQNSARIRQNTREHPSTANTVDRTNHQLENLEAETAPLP
Assay [5] has as its system rat rostral ventrolateral medulla neurons. As to conditions: in vitro; cited from earlier work.
The conditions of assay [6]: rats injected at 5-10 μg; cited from earlier work.
The subject of a further assay is adjuvant arthritis. As to conditions: intraperitoneal injection; cited from earlier work.
Setting [7] is: 0.5% (w/v) in WEP442, gauze under plastic film.

No end group written: not given here.

Consider Tyr-Pro-Phe-Phe-NH2 (YPFF-NH2), for which, in assay [1] (1% (w/v) in WEP442), the duration of relief entry is “about 7 hours” and the time to relief lay within 5 to 10 s. Further, the relief of soreness entry in assay [1] (1% (w/v) in WEP442, applied to the sore gum area) is on record as “all soreness was gone”. For the same substance, in assay [2] (setting [7]), the “duration of relief of pain and paresthesia” value fell in the range of 1 to 2 days; the “time to relief of symptoms” value was 8 h. The relief of symptoms entry in assay [2] (0.5% (w/v) in WEP442, saturated gauze under plastic film over cervical vertebra 7) is on record as “complete relief of symptoms”. In assay [3] (3 mg/ml sterile aqueous solution, subcutaneous, next day), the pain and paresthesia result was “diminished substantially”. For the same substance, in assay [3] (3 mg/ml subcutaneous), the “time to return of pain and paresthesia” value is on record as 2-3 weeks. In addition, the pain and paresthesia result in assay [3] (3 mg/ml subcutaneous, repeated after 24 hours, about 1 week later) was “negligible”. Besides, the “effect on pain caused by needling or pinching of injected sites” value in assay [4] is “did not prevent pain”. In addition, the “affinity for mu receptors” value with mu receptors is given as “very high affinity”. In assay [5], the “spontaneous discharge of the medullary neurons” value is “significantly inhibited”. Also, the analgesic effects entry in assay [6] is “exhibited analgesic effects”. For the same substance, the “effect on edema in rat paw assay” value with adjuvant arthritis is “did not have any effect that significantly differed from the effect of the control group”.
